Data set [1] deals with rats. Kind of data set: Locomotor activity in automated activity chambers 24 hours after first FST. Particulars: for Activity: high doses, vs vehicle (0 mg/kg), FIG. 3B; for Locomotor effects / non-specific motor function: after ICV injection, vs vehicle control, FIG. 6B.
Experimental: To examine the effects of gene transfer and antidepressant therapy on locomotor activity, groups of rats were tested for 1 hour in automated activity chambers 24 hours after the first FST.
Data set [2] relates to rats. Nature of the data set: Forced swim test (FST), latency to become immobile on re-test. The data set is classed as in vivo, rat. Particulars: for Latencies to become immobile on the re-test day in the FST: standard antidepressants vs vehicle (0 mg/kg), FIG. 3A; for Latencies to become immobile in the FST: kappa antagonist given ICV (norBNI 5.0 or 20 μg), FIG. 5 and 6A. The method, then:
Another symptom of clinical depression that can be modeled in rats is despair, a feeling of hopelessness. Symptoms of despair can be induced in rats using the forced swim test (FST), a highly validated model used to study antidepressant treatments.
The FST is a two day procedure in which rats swim under conditions in which escape is not possible. On the first day, the rats are forced to swim for 15 minutes. The rats initially search for an escape from the water, but eventually adopt a posture of immobility in which they make only the movements necessary to keep their heads above water. Upon re-testing one day later, latencies to become immobile—an indicator of how rapidly the rats “give up” in response to a familiar stressor—are decreased, which is inferred as despair. Standard antidepressants such as desipramine (DMI) and fluoxetine (FLX) extend latencies to become immobile. Drug efficacy in this animal model is predictive of antidepressant efficacy in humans.
CREB-mediated increases in dynorphin expression within the NAc underlie the decreases in the pleasurable effects of cocaine in the place conditioning paradigm: blockade of brain kappa opioid receptors (on which dynorphin acts) eliminates CREB-induced aversion to cocaine. To determine whether disruption of dynorphin function also eliminates CREB-induced despair in the FST, brain kappa receptors were blocked with either norBNI (nor-binaltorphimine) or GNTI (5′-guanidinyl-17-(cyclopropylmethyl)-6,7-dehydro-4,5α-epoxy-3,14-dihydroxy-6,7-2′,3′-indolomorphinan). […] As with CREB-induced anhedonia, dynorphin is critically involved in CREB-induced despair. Furthermore, they indicate that disruption of CREB function in this region may have antidepressant actions.

Data set [3] has as its system rats. Kind of data set: Cocaine place conditioning after HSV gene transfer into the NAc. As to conditions: cocaine 5.0 mg/kg IP, FIG. 2B. It counts as in vivo, rat. The method, then: Place conditioning was performed in a three compartment apparatus. During screening (day 0), rats were placed in the small (12×18×33 cm) central compartment and were allowed to explore the entire apparatus for 30 minutes. The compartments differed in floor texture, wall striping, and lighting. Rats showing no baseline preference were used for the study. Rats received bilateral microinjections (2.0 μl per side) at AP+1.7 mm, Lat±2.3 mm, and DV 6.8 mm. Injections were made over 10 minutes using a 26 gauge needle.
Behavioral testing began on day 3 after vector injection. On the first conditioning trial of each day, rats received saline (1 ml/kg, i.p.) and were confined to one of the large (24×18×33 cm) side compartments of the apparatus. After three hours, rats received cocaine (1.25 mg/kg, i.p.) and were confined to the other side compartment. Three types of conditioning session were used: a one hour pairing session where the animals were placed immediately into the apparatus immediately after treatment for one hour; 15 minute pairing session where the animals were placed immediately into the apparatus immediately after treatment for 15 minutes; or a delayed pairing session where the animals were placed in the apparatus for one hour following a 15 minute delay from drug exposure. […]

For data set [4] the following is noted: following systemic administration; cited from earlier work.
For data set [5] the following is noted: humans; cited from earlier work.

“Also recorded” adds a separate entry of the source.

`CNCCC(Oc1ccc(C(F)(F)F)cc1)c1ccccc1` (stereo not drawn) [FLX, fluoxetine]: the Activity result in data set [1] is recorded as “decreased by high doses”. Also, the “Latencies to become immobile on the re-test day in the FST” value in data set [2] is given as “increased”.
As for `COC(=O)[C@H]1[C@@H](OC(=O)c2ccccc2)C[C@@H]2CC[C@H]1N2C` [cocaine], the “Place preference, time spent in cocaine-associated environments” value is “no effect” in data set [3] (HSV-CREB group); approximately 600 s in data set [3] (HSV-mCREB and vehicle groups).
Turning to `Oc1ccc2c3c1O[C@H]1c4[nH]c5c(c4C[C@@]4(O)[C@@H](C2)N(CC2CC2)CC[C@]314)C[C@@]1(O)[C@H]2Cc3ccc(O)c4c3[C@@]1(CCN2CC1CC1)[C@H]5O4` [norBNI, nor-binaltorphimine], the “Locomotor effects / non-specific motor function” value in data set [1] was “Neither compound affected non-specific motor function”. In addition, in data set [4], the “Penetration of the blood-brain-barrier” value was “neither compound can penetrate the blood-brain-barrier”. Further, the “Latencies to become immobile in the FST” value in data set [2] is on record as “dose-dependently increased latencies to become immobile; also recorded: significantly longer latencies than the control group”.
On to `NC(N)=Nc1ccc2[nH]c3c(c2c1)C[C@@]1(O)[C@H]2Cc4ccc(O)c5c4[C@@]1(CCN2CC1CC1)[C@H]3O5` [GNTI, 5′-guanidinyl-17-(cyclopropylmethyl)-6,7-dehydro-4,5α-epoxy-3,14-dihydroxy-6,7-2′,3′-indolomorphinan], for which the “Locomotor effects / non-specific motor function” value in data set [1] is recorded as “Neither compound affected non-specific motor function”. The “Penetration of the blood-brain-barrier” value in data set [4] was “neither compound can penetrate the blood-brain-barrier”. Further, the “Potency relative to norBNI for increasing latencies to become immobile in the FST” value in data set [2] (ICV, FIG. 6A) is “roughly equipotent to norBNI”. Besides, the “Latencies to become immobile in the FST” value in data set [2] was “significantly longer latencies than the control group; also recorded: dose-dependently increased latencies to become immobile”.
Turning to `CNCCCN1c2ccccc2CCc2ccccc21` [DMI, desipramine], in data set [1], the Activity result is reported as “decreased by high doses”. Also, in data set [2], the “Latencies to become immobile on the re-test day in the FST” value is listed as “increased”.
Take `CN1Cc2c(N)cccc2C(c2ccccc2)C1` (stereo not drawn) [Nomifensine]: in data set [5], the Adverse reactions entry is on record as “caused lethal allergic reactions in some people” and the “Antidepressant efficacy in the clinic” value was “clinically effective antidepressant”.

Values taken from US6528518B2, “Treatment of depression with kappa receptor antagonists” (The McLean Hospital Corporation, priority 2000, dated 2003).
